{"source": "PubChem BioAssay AID250", "about": "(DTP/NCI, 2004)", "system": "BDF1 mice, L1210 leukemia sc, survival T/C", "assay": "NCI In Vivo Anticancer Drug Screen. Data for tumor model L1210 Leukemia (subcutaneous) in B6D2F1 (BDF1) mice", "details": "endpoint: median survival time, higher = longer survival", "method_in_brief": "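Mice carrying transplanted tumors received test compounds, and survival or tumor size was measured. Values are the treated-group measurement (T) divided by that of the vehicle-treated control group (C).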", "key": {"[1]": {"details": "dose: 1.08 mg/kg/injection, schedule: Q01DX Z (sc), vehicle: saline"}, "[2]": {"details": "dose: 1.8 mg/kg/injection, schedule: Q01DX Z (sc), vehicle: saline"}, "[3]": {"details": "dose: 3.0 mg/kg/injection, schedule: Q01DX Z (sc), vehicle: saline"}, "[4]": {"details": "dose: 5.0 mg/kg/injection, schedule: Q01DX Z (sc), vehicle: saline"}, "[5]": {"details": "dose: 8.4 mg/kg/injection, schedule: Q01DX Z (sc), vehicle: saline"}, "[6]": {"details": "dose: 14.0 mg/kg/injection, schedule: Q01DX Z (sc), vehicle: saline"}, "[7]": {"details": "dose: 23.0 mg/kg/injection, schedule: Q01DX Z (sc), vehicle: saline"}, "[8]": {"details": "dose: 65.0 mg/kg/injection, schedule: Q01DX Z (sc), vehicle: saline"}, "[9]": {"details": "dose: 108.0 mg/kg/injection, schedule: Q01DX Z (sc), vehicle: saline"}, "[10]": {"details": "dose: 216.0 mg/kg/injection, schedule: Q01DX Z (sc), vehicle: water"}, "[11]": {"details": "dose: 39.0 mg/kg/injection, schedule: Q01DX Z (sc), vehicle: methylcellulose (MC)"}, "[12]": {"details": "dose: 65.0 mg/kg/injection, schedule: Q01DX Z (sc), vehicle: methylcellulose (MC)"}, "[13]": {"details": "dose: 108.0 mg/kg/injection, schedule: Q01DX Z (sc), vehicle: methylcellulose (MC)"}, "[14]": {"details": "dose: 14.0 mg/kg/injection, schedule: Q01DX Z (sc), vehicle: methylcellulose (MC)"}}, "note": "Values joined by “and” are separate entries in the source; they are usually repeats but may differ in a detail not shown here. Identical values can stand only once. Inconclusive results and toxic doses are left out."}
{"molecule": "CC[C@@]1(O)C(=O)OCc2c1cc1n(c2=O)Cc2cc3ccccc3nc2-1", "values": [{"measurement": "T/C", "setting": "dose: 0.65 mg/kg/injection, schedule: Q01DX Z (sc), vehicle: carboxymethylcellulose (CMC)", "value": "100 % of control"}, {"measurement": "T/C", "setting": "dose: 1.08 mg/kg/injection, schedule: Q01DX Z (sc), vehicle: carboxymethylcellulose (CMC)", "value": "100 % of control"}, {"measurement": "T/C", "setting": "dose: 1.8 mg/kg/injection, schedule: Q01DX Z (sc), vehicle: carboxymethylcellulose (CMC)", "value": "122 % of control"}, {"measurement": "T/C", "setting": "dose: 3.0 mg/kg/injection, schedule: Q01DX Z (sc), vehicle: carboxymethylcellulose (CMC)", "value": "118 % of control"}]}
{"molecule": "S=P(N1CC1)(N1CC1)N1CC1", "values": [{"measurement": "T/C", "setting": "[1]", "value": "110 % of control"}, {"measurement": "T/C", "setting": "dose: 1.5 mg/kg/injection, schedule: Q01DX009 (ip), vehicle: water", "value": "113 % of control"}, {"measurement": "T/C", "setting": "dose: 1.5 mg/kg/injection, schedule: Q01DX009 (sc), vehicle: water", "value": "105 % of control"}, {"measurement": "T/C", "setting": "[2]", "value": "100 % of control and 110 % of control"}, {"measurement": "T/C", "setting": "[3]", "value": "112 % of control"}, {"measurement": "T/C", "setting": "[4]", "value": "156 % of control"}, {"measurement": "T/C", "setting": "dose: 6.0 mg/kg/injection, schedule: Q01DX009 (ip), vehicle: water", "value": "94 % of control"}, {"measurement": "T/C", "setting": "dose: 6.0 mg/kg/injection, schedule: Q01DX009 (sc), vehicle: water", "value": "169 % of control"}, {"measurement": "T/C", "setting": "[5]", "value": "170 % of control"}, {"measurement": "T/C", "setting": "dose: 12.0 mg/kg/injection, schedule: Q01DX009 (sc), vehicle: water", "value": "86 % of control"}, {"measurement": "T/C", "setting": "[6]", "value": "120 % of control"}, {"measurement": "T/C", "setting": "[7]", "value": "104 % of control and 120 % of control"}]}
{"molecule": "CCN(CC)P(=O)(N1CC1)N1CC1", "values": [{"measurement": "T/C", "setting": "[1]", "value": "100 % of control"}, {"measurement": "T/C", "setting": "[2]", "value": "100 % of control"}, {"measurement": "T/C", "setting": "[3]", "value": "110 % of control"}, {"measurement": "T/C", "setting": "[4]", "value": "115 % of control"}, {"measurement": "T/C", "setting": "[5]", "value": "170 % of control and 194 % of control"}, {"measurement": "T/C", "setting": "[6]", "value": "150 % of control and 183 % of control"}, {"measurement": "T/C", "setting": "[7]", "value": "155 % of control"}, {"measurement": "T/C", "setting": "dose: 39.0 mg/kg/injection, schedule: Q01DX Z (sc), vehicle: saline", "value": "111 % of control"}, {"measurement": "T/C", "setting": "[8]", "value": "111 % of control"}, {"measurement": "T/C", "setting": "[9]", "value": "100 % of control"}]}
{"molecule": "CCN(CC)C(=O)c1cccnc1", "values": [{"measurement": "T/C", "setting": "dose: 28.0 mg/kg/injection, schedule: Q01DX Z (sc), vehicle: water", "value": "109 % of control"}, {"measurement": "T/C", "setting": "dose: 46.7 mg/kg/injection, schedule: Q01DX Z (sc), vehicle: water", "value": "100 % of control"}, {"measurement": "T/C", "setting": "dose: 77.8 mg/kg/injection, schedule: Q01DX Z (sc), vehicle: water", "value": "100 % of control"}, {"measurement": "T/C", "setting": "dose: 130.0 mg/kg/injection, schedule: Q01DX Z (sc), vehicle: water", "value": "100 % of control"}, {"measurement": "T/C", "setting": "[10]", "value": "100 % of control"}]}
{"molecule": "Cc1cc(N)c2cc(NC(=O)CCCCCCCCC(=O)Nc3ccc4nc(C)cc(N)c4c3)ccc2n1", "values": [{"measurement": "T/C", "setting": "[8]", "value": "91 % of control"}, {"measurement": "T/C", "setting": "[9]", "value": "91 % of control"}, {"measurement": "T/C", "setting": "dose: 130.0 mg/kg/injection, schedule: Q01DX Z (sc), vehicle: saline", "value": "91 % of control"}, {"measurement": "T/C", "setting": "dose: 180.0 mg/kg/injection, schedule: Q01DX Z (sc), vehicle: saline", "value": "91 % of control"}, {"measurement": "T/C", "setting": "dose: 216.0 mg/kg/injection, schedule: Q01DX Z (sc), vehicle: saline", "value": "91 % of control"}, {"measurement": "T/C", "setting": "dose: 300.0 mg/kg/injection, schedule: Q01DX Z (sc), vehicle: saline", "value": "91 % of control"}, {"measurement": "T/C", "setting": "dose: 360.0 mg/kg/injection, schedule: Q01DX Z (sc), vehicle: saline", "value": "91 % of control"}, {"measurement": "T/C", "setting": "dose: 500.0 mg/kg/injection, schedule: Q01DX Z (sc), vehicle: saline", "value": "95 % of control"}, {"measurement": "T/C", "setting": "dose: 600.0 mg/kg/injection, schedule: Q01DX Z (sc), vehicle: saline", "value": "91 % of control"}, {"measurement": "T/C", "setting": "dose: 1000.0 mg/kg/injection, schedule: Q01DX Z (sc), vehicle: saline", "value": "95 % of control"}]}
{"molecule": "COc1ccc(/C=N/NC(N)=S)cc1", "values": [{"measurement": "T/C", "setting": "[11]", "value": "95 % of control"}, {"measurement": "T/C", "setting": "dose: 39.0 mg/kg/injection, schedule: Q01DX Z (sc), vehicle: water", "value": "100 % of control"}, {"measurement": "T/C", "setting": "[12]", "value": "100 % of control"}, {"measurement": "T/C", "setting": "dose: 65.0 mg/kg/injection, schedule: Q01DX Z (sc), vehicle: water", "value": "100 % of control"}, {"measurement": "T/C", "setting": "[13]", "value": "100 % of control"}, {"measurement": "T/C", "setting": "dose: 108.0 mg/kg/injection, schedule: Q01DX Z (sc), vehicle: water", "value": "100 % of control"}, {"measurement": "T/C", "setting": "dose: 180.0 mg/kg/injection, schedule: Q01DX Z (sc), vehicle: methylcellulose (MC)", "value": "95 % of control"}, {"measurement": "T/C", "setting": "dose: 180.0 mg/kg/injection, schedule: Q01DX Z (sc), vehicle: water", "value": "100 % of control"}, {"measurement": "T/C", "setting": "[10]", "value": "100 % of control"}, {"measurement": "T/C", "setting": "dose: 300.0 mg/kg/injection, schedule: Q01DX Z (sc), vehicle: methylcellulose (MC)", "value": "100 % of control"}, {"measurement": "T/C", "setting": "dose: 300.0 mg/kg/injection, schedule: Q01DX Z (sc), vehicle: water", "value": "100 % of control"}, {"measurement": "T/C", "setting": "dose: 360.0 mg/kg/injection, schedule: Q01DX Z (sc), vehicle: water", "value": "111 % of control"}, {"measurement": "T/C", "setting": "dose: 500.0 mg/kg/injection, schedule: Q01DX Z (sc), vehicle: methylcellulose (MC)", "value": "100 % of control"}, {"measurement": "T/C", "setting": "dose: 500.0 mg/kg/injection, schedule: Q01DX Z (sc), vehicle: water", "value": "100 % of control"}, {"measurement": "T/C", "setting": "dose: 600.0 mg/kg/injection, schedule: Q01DX Z (sc), vehicle: water", "value": "105 % of control"}, {"measurement": "T/C", "setting": "dose: 1000.0 mg/kg/injection, schedule: Q01DX Z (sc), vehicle: water", "value": "111 % of control"}]}
{"molecule": "ClCCn1c2ccccc2c2ccccc21", "values": [{"measurement": "T/C", "setting": "dose: 5.0 mg/kg/injection, schedule: Q01DX Z (sc), vehicle: methylcellulose (MC)", "value": "100 % of control"}, {"measurement": "T/C", "setting": "dose: 8.4 mg/kg/injection, schedule: Q01DX Z (sc), vehicle: methylcellulose (MC)", "value": "100 % of control"}, {"measurement": "T/C", "setting": "[14]", "value": "100 % of control"}, {"measurement": "T/C", "setting": "dose: 23.0 mg/kg/injection, schedule: Q01DX Z (sc), vehicle: methylcellulose (MC)", "value": "100 % of control"}, {"measurement": "T/C", "setting": "[11]", "value": "100 % of control"}, {"measurement": "T/C", "setting": "[12]", "value": "100 % of control"}, {"measurement": "T/C", "setting": "[13]", "value": "100 % of control"}]}
{"molecule": "CCOC(=O)c1ccc(N)nc1", "values": [{"measurement": "T/C", "setting": "dose: 1.81 mg/kg/injection, schedule: Q01DX Z (sc), vehicle: water", "value": "100 % of control"}, {"measurement": "T/C", "setting": "dose: 3.02 mg/kg/injection, schedule: Q01DX Z (sc), vehicle: water", "value": "100 % of control"}, {"measurement": "T/C", "setting": "dose: 5.04 mg/kg/injection, schedule: Q01DX Z (sc), vehicle: water", "value": "100 % of control"}, {"measurement": "T/C", "setting": "dose: 8.4 mg/kg/injection, schedule: Q01DX Z (sc), vehicle: water", "value": "100 % of control"}, {"measurement": "T/C", "setting": "dose: 14.0 mg/kg/injection, schedule: Q01DX Z (sc), vehicle: water", "value": "100 % of control"}, {"measurement": "T/C", "setting": "dose: 23.3 mg/kg/injection, schedule: Q01DX Z (sc), vehicle: water", "value": "100 % of control"}, {"measurement": "T/C", "setting": "dose: 38.9 mg/kg/injection, schedule: Q01DX Z (sc), vehicle: water", "value": "100 % of control"}]}
{"molecule": "CS(C)=O", "values": [{"measurement": "T/C", "setting": "dose: 1.5 grams/kg/injection, schedule: Q01DX009 (ip), vehicle: saline", "value": "103 % of control"}, {"measurement": "T/C", "setting": "dose: 3.0 grams/kg/injection, schedule: Q01DX009 (ip), vehicle: saline", "value": "97 % of control"}, {"measurement": "T/C", "setting": "dose: 6.0 grams/kg/injection, schedule: Q01DX009 (ip), vehicle: saline", "value": "103 % of control"}]}
{"molecule": "S=c1nc[nH]c2c1ncn2C1C=CCCC1", "note": "(configuration not stated)", "values": [{"measurement": "T/C", "setting": "[14]", "value": "100 % of control"}, {"measurement": "T/C", "setting": "dose: 23.4 mg/kg/injection, schedule: Q01DX Z (sc), vehicle: methylcellulose (MC)", "value": "100 % of control"}, {"measurement": "T/C", "setting": "[13]", "value": "100 % of control"}]}
